Laboratory results from patent publication US4980377A, “1-(aminophenyl)-2-aminopropanone derivatives” (Laboratoire L. Lafon, priority 1984, dated 1990).
Entries after “also recorded” stand apart in the source; their conditions may differ.

Legend:
[1] = pH of solutions in distilled water; format: physicochemical
Description: The neuropsychopharmacological study was undertaken according to the procedures described above for CRL 41 153, CRL 41 213 being adminstered intraperitoneally, in solution in distilled water, in a volume of 20 ml/kg to male mice and a volume of 5 ml/kg to male rats, and the pH of the injected solution varying with the concentration of CRL 41 213 according to the data given in Table II below.

rats [2] = assay: Overall behavior and reactivities in rats; format: in vivo, rat; conditions: dose not stated
Description: (§1) In the neuropsychopharmacological study which follows, a solution of CRL 41 153 in distilled water (pH 1.5) was administered intraperitoneally in a volume of 20 ml/kg to male mice and 5 ml/kg to male rats.
(§2) Groups of three animals are observed before and then 0.25 hour, 0.50 hour, 1 hour, 2 hours, 3 hours and 24 hours after the administration of CRL 41 153.

mice [3] = assay: Interaction with oxotremorine; format: in vivo, mouse; conditions: i.p.
Description: CRL 41 153 is administered to groups of 6 mice 0.5 hour before the intraperitoneal injection of 0.5 mg/kg of oxotremorine.

mice [4] = assay: Interaction with barbital; format: in vivo, mouse; conditions: i.p., barbital 220 mg/kg
Description: Half an hour after the administration of CRL 41 153, groups of 10 mice receive an intraperitoneal injection of barbital (220 mg/kg).

rats [5] = assay: Interaction with amphetamine; format: in vivo, rat; conditions: i.p.
Description: Amphetamine (2 mg/kg) is injected intraperitoneally into groups of 6 rats 30 minutes after the administration of CRL 41 153. […] 4 mg/kg and 16 mg/kg, CRL 41 153 potentiates the intensity and duration of the stereotypies induced by amphetamine.

CNS = assay: Neuropsychopharmacological profile as a whole; format: in vivo, mice and rats; conditions: conclusion of the tests
Description: as §1

mice [6] = assay: Interaction with apomorphine in mice; format: in vivo, mouse; conditions: i.p.
Description: Groups of 6 mice receive CRL 41 153 0.5 hour before the subcutaneous injection of 1 or 16 mg/kg of apomorphine.

rats [7] = assay: Interaction with apomorphine in rats; format: in vivo, rat; conditions: i.p.
Description: CRL 41 153 is administered to groups of 6 rats 0.5 hour before the subcutaneous injection of 0.5 mg/kg of apomorphine.

mice [8] = assay: Spontaneous motility; format: in vivo, mouse; conditions: i.p.
Description: 0.5 hour after they have received CRL 41 153, the mice (6 per dose, 12 control animals) are placed in an actimeter, where their motility is recorded for 30 minutes.

mice [9] = assay: Motility reduced by hypoxic aggression; format: in vivo, mouse; conditions: i.p.
Description: Half an hour after they have received CRL 41 153, the mice (10 per dose, 20 control animals) are subjected to acute hypobaric anoxia [pressure reduction of 600 mm Hg (i.e. about 8×10^4 Pa) in 90 seconds; release of vacuum in 45 seconds] and are then placed in an actimeter, where their motility is recorded for 10 minutes.

mice [10] = assay: Interaction with reserpine; format: in vivo, mouse; conditions: i.p.
Description: Four hours after the intraperitoneal injection of 2.5 mg/kg of reserpine, groups of 6 mice receive CRL 41 153.

mice [11] = assay: Four plate test, traction and electric shock; format: in vivo, mouse; conditions: i.p.
Description: The test is performed on groups of 10 mice 30 minutes after the administration of CRL 41 153.

mice [12] = assay: Behavioral despair; format: in vivo, mouse; conditions: forcibly immersed mice, i.p.
Description: Half an hour after they have received CRL 41 153, groups of 6 mice are placed in a beaker filled with water to a height of 6 cm. The total period of immobility between the 2nd and 6th minutes following immersion is noted.

[13] = system: gravid White New Zealand female rabbits; assay: Teratogenicity in gravid White New Zealand rabbits; format: in vivo, rabbit; conditions: 10 mg/kg daily, day 5 to day 18 of gestation
Description: The protocol used comprised administering to gravid White New Zealand female rabbits (weighing each about 2900-3000 grams before gestation) a daily dose of 0 (batch of control animals), 5,10 or 50 mg/kg of each product to be tested by gastrogavage from day 5 to day 18 of gestation, then carrying out a cesarean operation on day 29 of gestation in order to enumerate:
(i) the total number of foestuses, and
(ii) the total number of foestuses presenting at least one malformation.
To appreciate the results of such a protocol it must be noted that natural malformations may occur. Statistically, the percentage of foetuses presenting at least one malformation in any control batch of gravid White New Zealand female rabbits is lower than or equal to 1.5% with respect to the total number of foetuses.
To be precise in this protocol a malformation comprises at least one of the following cases: articular limb blocade, anorous foetus, deviated tail, shorter tail, skull deformation, exemcephalia.

mice [14] = assay: Motility reduced by habituation to the enclosure; format: in vivo, mouse; conditions: i.p.
Description: After they have stayed In the actimeters for 18 hours, (he mice (6 per dose, 12 control animals) receive CRL 41 153. They are immediately returned to their respective enclosures and, half an hour later, their motility is recorded for 30 minutes.

mice [15] = assay: Overall behavior and reactivities in mice; format: in vivo, mouse; conditions: dose not stated
Description: as §1, §2

Compound: CC(C(=O)c1ccc(N)cc1)N1CCCCC1 (stereo not drawn) [CRL 41 241]
- pH ([1]; 0.3 g/liter in distilled water): 5.0
- pH ([1]; 0.5 g/liter in distilled water): 4.5
- pH ([1]; 1 g/liter in distilled water): 3.5
- pH ([1]; 2 g/liter in distilled water): 3.0
- pH ([1]; 3 g/liter in distilled water): 2.5
- pH ([1]; 6 g/liter in distilled water): 2.0
- pH ([1]; 26 g/liter in distilled water): 1.5
- pH ([1]; 50 g/liter in distilled water): 1.0
- pH ([1]; ≤0.05 g/liter in distilled water): 5.5
- Overall behavior: observed effects (summary) (rats [2]): excitation with hyperactivity in mice and rats; also recorded: moderate mydriasis in mice and rats
- Stereotype movements (summary) (rats [2]): the presence of stereotype movements in mice and rats
- Effect on hypothermic action of oxotremorine (mice [3]): antagonism of the hypothermia
- Effect on trembling induced by oxotremorine (mice [3]): a very distinct reduction in the intensity of the trembling due to oxotremorine
- Duration of the sleep induced by barbital (mice [4]): a reduction in the duration of the sleep induced by barbital
- Effect on stereotypies induced by amphetamine (rats [5]): potentiation of the stereotypies
- Antidepressant effects (overall) (CNS): antidepressant-type effect
- Stimulant effects (overall) (CNS): large stimulant component
- α-adrenergic stimulant effects (overall) (CNS): an α-adrenergic stimulation component
- Effect on hypothermia induced by apomorphine (mice [6]): antagonism of the hypothermia
- Effect on stereotypies induced by apomorphine (rats [7]): potentiation of the stereotypies
- Spontaneous motor activity (mice [8]): an increase in the spontaneous motor activity of mice
- Motor recovery of mice after hypobaric hypoxia (mice [9]): improvement in the motor recovery
- Effect on hypothermia induced by reserpine (mice [10]): antagonism of the hypothermia
- Effect on ptosis induced by reserpine (mice [10]): a decrease in the ptosis induced by reserpine
- Effect on convulsant effects of electric shock (mice [11]): total antagonism of the convulsant effect of electric shock
- Number of punished passes in the four plate test (mice [11]): a moderate increase in the number of punished passes in the 4 plate test on mice (at high doses)
- Period of immobility due to despair (mice [12]): a reduction in the Period of immobility
- Affected foetuses, number [13]: 0
- Total foetuses (live) [13]: 88
- Affected foetuses, % ([13]; normal limit 1.5%): 0%
- Motor activity of mice accustomed to their enclosure (mice [14]): resumption in the motor activity of mice accustomed to their enclosure
- Overall behavior: observed effects (summary) (mice [15]): excitation with hyperactivity in mice and rats; also recorded: moderate mydriasis in mice and rats
- Stereotype movements (summary) (mice [15]): the presence of stereotype movements in mice and rats
